These results are taken from patent US10550153B2, “Peptide or pharmaceutically acceptable salt thereof, or prodrug thereof” (Tokyo University of Pharmacy & Life Sciences, priority 2017, dated 2020).

“Also recorded” adds a separate entry of the source. Where a SMILES comes first, the peptide text is derived from it. [ ]: non-standard residue; d: D form. The star is where a group is joined. Propanoyl(3-cHex) = O=C(CCC1CCCCC1)*; Orn = NCCC[C@H](N)C(=O)O; Dab = NCC[C@H](N)C(=O)O; Dap = NC[C@H](N)C(=O)O

Data set [1] can be described thus: Stability in phosphate buffer solution (HPLC recovery rate). It counts as physicochemical. The method, then:
Peptide solution was prepared (1 mL) by using a 100 mM phosphate buffer solution (pH 7.4) so as to have the final concentration of 1 mM, and then the peptide solution was incubated for arbitrary time period (1 to 72 hours) in a water bath at 37° C. After the arbitrary time period, sampling was carried out and 20 μL of injection into high performance liquid chromatography (HPLC) (column: COSMOSIL (registered trademark) Cholester Packed Column 4.6 mmI.D.×150 mm; gradient: % B 25-35, 30 min [A: H2O-0.1% (v/v) TFA; B: MeCN]; flow rate: 1.0 mL/min; measurement wavelength: 220 nm) was made. Then, by taking the obtained area value as an indicator, the stability was analyzed from the recovery rate (%) of the compound.

The target of a further data set is T1, hNMUR2 (Homo sapiens, UniProt Q9GZQ4).
T1 construct: expressed in transfected cells
T1 sequence (Q9GZQ4 whole entry): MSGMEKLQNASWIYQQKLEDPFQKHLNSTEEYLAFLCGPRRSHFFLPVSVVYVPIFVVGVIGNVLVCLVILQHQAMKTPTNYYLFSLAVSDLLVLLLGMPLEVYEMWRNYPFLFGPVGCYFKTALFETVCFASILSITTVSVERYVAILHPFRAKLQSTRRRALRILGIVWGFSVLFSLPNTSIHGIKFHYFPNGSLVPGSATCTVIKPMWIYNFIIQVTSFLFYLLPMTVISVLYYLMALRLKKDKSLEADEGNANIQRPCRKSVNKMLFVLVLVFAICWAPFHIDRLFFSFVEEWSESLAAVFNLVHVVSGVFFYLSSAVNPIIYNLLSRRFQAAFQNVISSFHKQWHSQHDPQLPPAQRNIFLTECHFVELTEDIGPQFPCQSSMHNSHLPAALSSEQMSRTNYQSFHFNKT
Put plainly: In vitro agonist activity for human neuromedin U receptor (intracellular calcium, Fluo-4, CHO cells stably expressing the receptor). The data set is classed as cell-based. As to conditions: at a concentration of 100 nM; versus hNMUR1; selective = relative agonist activity for NMUR1 18% or less at 1000 nM and for NMUR2 48% or more at 100 nM. As for the experimental part: For CPN-219 which has been synthesized in Synthesis Example 1, evaluation of the agonist activity for type 1 and type 2 human neuromedin U receptor (hNMUR1 and hNMUR2) was carried out according to the following method.
CHO cells derived from Chinese hamster ovary which stably express hNMUR1 or hNMUR2 were cultured in a 5% (v/v) CO2 incubator at 37° C. by using MEM alpha (GIBCO (registered trademark), Thermo Fisher Scientific Inc.) medium containing 1 mg/mL G418 (NACALAI TESQUE, INC.), 10% (v/v) fetal bovine serum (FCS) and nucleosides (adenosine 10 mg/L, cytidine 10 mg/L, guanosine 10 mg/L, uridine 10 mg/L, 2′-deoxyadenosine 10 mg/L, 2′-deoxycytidine hydrochloride 11 mg/L, 2′-deoxyguanosine 10 mg/L, thymidine 10 mg/L).
The CHO cells were sown on a 96 well black-walled plate with clear bottom (Iwaki: AGC TECHNO GLASS CO., LTD.) at 2.0×10^4 cells per well (150 μL DMEM+10% (v/v) FBS), and then cultured for 18 hours.
After the culture, 100 μL of Fluo-4 AM (Promega Corporation) solution as a fluorescent indicator of intracellular calcium concentration was added to each well, in which the solution has been prepared such that it has the final concentration of 4 μM in assay buffer (HBSS, 10 mM HEPES, 2.5 mM probenecid, 1% (v/v) FCS: pH 7.4). After culture for 40 minutes at 37° C., the cells were washed 4 times with the assay buffer and set in a fluorometric imaging plate reader (Molecular Devices, LLC.).
The peptide as a test sample was dissolved by using dimethyl sulfoxide (DMSO) such that the stock solution is present at 20 mM, and then it was stored at 4° C. One hour before addition to the cells, by using an assay buffer added with 0.05% (v/v) bovine serum albumin (BSA) and […] Triton (registered trademark) X-100, preparation to arbitrary final concentration was made (10^−12 to 10^−6 M), and the fluorescence based on the activity of recruiting intracellular calcium by the peptide (i.e., agonist activity) was measured by using a fluorometric imaging plate reader.
In general terms: A change in cytosolic calcium serves as a functional read-out for many receptors and channels.

The nature of data set [2]: Stability in rat plasma (LC/MS). The note with it: 37° C. It counts as in vitro ADME. As for the experimental part: Peptide solution was added to rat plasma such that the final peptide concentration is 50 μg/mL, and then incubated for arbitrary time period (0.5 to 6 hours) at 37° C. After the arbitrary time period, sampling was carried out and high performance liquid chromatography mass spectrometry (LC/MS) was performed under the following conditions followed by stability analysis.
LC/MS System: LC-MS2020 (SHIMADZU CORPORATION)
Column: TSKgel ODS-100V (Tosoh Corporation, 3.0 μm, 2.0 mm×75 mm)
Mobile layer: 0.1% trifluoroacetic acid (pH 2.5):acetonitrile=2:1
Column temperature: 40° C.
Detection: ESI^+, m/z=425.

The nature of data set [3]: Pharmacokinetics of peptides in rat after administration via jugular vein. As to conditions: Wistar rat, 500 μg/200 μL via jugular vein, 1 to 240 minutes; compared to CPN-116. It counts as in vivo. The method, then: The peptide solution (500 μg/200 μL) was administered via jugular vein of a Wistar rat. After arbitrary time period (1 to 240 minutes), blood was taken from the femoral artery which has been subjected to cannulation in advance. According to the LC/MS analysis, pharmacokinetics of the peptide was analyzed. The LC/MS analysis was carried out under the same conditions as above.

The target of a further data set is T2, mNMUR2 (Mus musculus, UniProt Q8BZ39).
T2 construct: expressed in transfected cells; host or cells: HEK293 cells (transient transfection with FuGENE6)
T2 sequence (Q8BZ39 whole entry): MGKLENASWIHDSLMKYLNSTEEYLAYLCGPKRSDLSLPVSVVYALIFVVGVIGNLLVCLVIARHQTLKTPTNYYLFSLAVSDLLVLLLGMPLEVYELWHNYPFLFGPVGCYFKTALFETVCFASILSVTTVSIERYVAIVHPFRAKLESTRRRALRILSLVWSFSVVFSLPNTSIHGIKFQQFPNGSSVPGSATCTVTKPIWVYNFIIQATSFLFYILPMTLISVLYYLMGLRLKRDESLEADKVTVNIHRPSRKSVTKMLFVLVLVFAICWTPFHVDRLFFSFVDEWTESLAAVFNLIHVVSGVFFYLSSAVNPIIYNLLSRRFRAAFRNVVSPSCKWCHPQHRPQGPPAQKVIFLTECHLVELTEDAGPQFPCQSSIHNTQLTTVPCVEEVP
Description: In vitro agonist activity for mouse neuromedin U receptor (intracellular calcium, Fluo-4, transfected HEK293 cells). The data set is classed as cell-based. The note with it: at a concentration of 100 nM, versus mNMUR1. As for the experimental part:
For CPN-219 which has been synthesized in Synthesis Example 1, evaluation of the agonist activity for type 1 and type 2 mouse neuromedin U receptor (mNMUR1 and mNMUR2) was carried out according to the following method.
HEK293 cells derived from human embryonic kidney were cultured in a 5% (v/v) CO2 incubator at 37° C. by using DMEM-high glucose (GIBCO (registered trademark), Thermo Fisher Scientific Inc.) medium containing 10% (v/v) FCS.
Cells were sown on a 100 mm dish at 5.0×10^5 cells (10 mL DMEM+10% FBS), and then cultured for 18 hours. After the culture, by using FuGENE6 (Promega Corporation), the cultured cells were transfected with an expression plasmid which encodes mNMUR1 or mNMUR2 (2.5 μg). The cells were cultured for 18 hours. […]
On the next day, 100 μL of Fluo-4 AM (Promega Corporation) solution as a fluorescent indicator of intracellular calcium concentration was added to each well, in which the solution has been prepared such that it has the final concentration of 4 μM in assay buffer (HBSS, 10 mM HEPES, 2.5 mM probenecid, 1% FCS: pH 7.4). After culture for 40 minutes at 37° C., the cells were washed 4 times with the assay buffer and set in a fluorometric imaging plate reader (Molecular Devices, LLC.). […]

Data set [4] concerns ddy male mouse. Description: Suppression of body weight gain and food intake upon intranasal administration to a mouse. It counts as in vivo. The note with it: 64 μg or 213 μg once intranasally, Day 1 to 5, versus physiological saline. The method, then: CPN-219, each dissolved at 64 μg or 213 μg in physiological saline (5 μL), was administered once to the nasal cavity of a ddy male mouse under anesthetization. As a control, physiological saline (5 μL) was administered once to the nasal cavity. For each administration group, the body weight of a mouse and food intake amount were measured immediately before the administration, each of Day 1 to 5 from immediately after the administration.
The body weight of a mouse was 29.0±0.83 g for the group with intranasal administration of 64 μg, or 27.7±1.29 g for the group with intranasal administration of 213 μg.

For data set [5], the system named is ddy male mouse. Put plainly: Fluctuation in corticosterone concentration in blood. The data set is classed as in vivo. The note with it: 200 μg/5 μL intranasal, after 5 minutes. As for the experimental part: Peptide solution (200 μg/5 μL) or physiological saline (5 μL) was administered, either intranasally or peritoneally, to a ddY male mouse. After 5 minutes, blood was taken from the caval vein, and corticosterone concentration in plasma was analyzed according to the LC/MS analysis. Furthermore, as a control, without administering the peptide solution (200 μg/5 μL) or physiological saline (5 μL), blood was taken […] from the caval vein, and corticosterone concentration in plasma was analyzed according to the LC/MS analysis. The LC/MS analysis was carried out under the same conditions as above.

A short description of data set [6]: Brain delivery upon intranasal administration to a mouse. The data set is classed as in vivo. As to conditions: ddY male mouse, 200 μg/5 μL intranasal, after 5 minutes; compared to CPN-116. As for the experimental part:
Peptide solution (200 μg/5 μL) was administered to the nasal cavity of a ddY male mouse. After 5 minutes, the animal was sacrificed and the brain tissues were collected. According to the LC/MS analysis, concentration of the peptide in plasma and brain was analyzed, and the ratio of concentration in brain compared to concentration in plasma was analyzed. The LC/MS analysis was carried out under the same conditions as above.

For data set [7], the system named is ddy male mouse. Put plainly: Suppression of increase in prolactin concentration in blood under restraint stress. The note with it: 200 μg/5 μL intranasal, restraint stress 20 minutes, ELISA. It counts as in vivo. The method, then: Peptide solution (200 μg/5 μL) or physiological saline (5 μL) was administered to the nasal cavity of a ddY male mouse. After 20 minutes, restraint stress (i.e., addition to the inside of a tube) was applied for 20 minutes and blood was taken by cutting off the animal head. Then, the PLT concentration in plasma was analyzed by using Mouse Prolactin DuoSet ELISA (R&D systems).
Furthermore, for a ddY male mouse which has not been administered with the peptide solution (200 μg/5 μL) or physiological saline (5 μL), and also not applied with any stress, the PLT concentration in plasma was analyzed in the same manner as above.

[8] abbreviates: 100 mM phosphate buffer solution pH 7.4, 37° C., after 48 hours.
[9] abbreviates: 2 hours, read-out: recovery rate in rat plasma after 2 hours.

For “3-Cyclohexylpropionyl-Leu-Leu-Dpr-Pro-Arg-Asn-NH2 ({Propanoyl(3-cHex)}-LL[Dap]PRN-NH2) [CPN-220]”, the “converted to CPN-116 in phosphate buffer solution” value in data set [1] (setting [8]) is not below 25%. Besides, the “hNMUR2 selective agonist activity” value with hNMUR2 was “did not exhibit the hNMUR2 selective agonist activity; also recorded: does not show the hNMUR2 selective agonist activity”.
As to “3-Cyclohexylpropionyl-Leu-Leu-Orn-Pro-Arg-Asn-NH2 ({Propanoyl(3-cHex)}-LL[Orn]PRN-NH2; SMILES CC(C)C[C@H](NC(=O)CCC1CCCCC1)C(=O)N[C@@H](CC(C)C)C(=O)N[C@@H](CCCN)C(=O)N1CCC[C@H]1C(=O)N[C@@H](CCCNC(=N)N)C(=O)N[C@@H](CC(N)=O)C(N)=O) [CPN-221]”, in the data set with hNMUR2, the “hNMUR2 selective agonist activity” value is listed as “exhibited the hNMUR2 selective agonist activity”.
In the case of `CC(C)C[C@H](NC(=O)CCC1CCCCC1)C(=O)N[C@@H](CC(C)C)C(=O)N[C@@H](CN)C(=O)N1CCC[C@H]1C(=O)N[C@@H](CCCNC(=N)N)C(=O)N[C@@H](CC(N)=O)C(N)=O` [CPN-116, 3-Cyclohexylpropionyl-Leu-Leu-Dpr-Pro-Arg-Asn-NH2] ({Propanoyl(3-cHex)}-LL[Dap]PRN-NH2), the “converted to CPN-220 in phosphate buffer solution” value in data set [1] (setting [8]) is on record as not below 70%. For the same compound, the “chemical stability (in words)” value in data set [1] (100 mM phosphate buffer solution, conclusion from Test Examples 11 and 12) is recorded as “chemically unstable”. Also, the recovery at 2 h, 50 μg/mL in [2] (setting [9]) is not above 3%.
Turning to `CC(C)C[C@H](NC(=O)CCC1CCCCC1)C(=O)N[C@@H](CC(C)C)C(=O)N[C@@H](CCN)C(=O)N1CCC[C@H]1C(=O)N[C@@H](CCCNC(=N)N)C(=O)N[C@@H](CC(N)=O)C(N)=O` [CPN-219, 3-Cyclohexylpropionyl-Leu-Leu-Dbu-Pro-Arg-Asn-NH2] ({Propanoyl(3-cHex)}-LL[Dab]PRN-NH2), the “pharmacokinetics in rat blood” value in data set [3] is recorded as “more favorable pharmacokinetics in rat blood”. Moreover, at mNMUR2, the “mNMUR2 selective agonist activity” value was “exhibited the mNMUR2 selective agonist activity”. In the data set with ddy male mouse [4], the “body weight gain of a mouse” value is reported as “significantly suppressed the body weight gain” and the “food intake of a mouse” value was “significantly suppressed”. Further, the “corticosterone concentration in blood” value in the data set on ddy male mouse [5] is reported as “significantly increased the corticosterone concentration in blood”. At hNMUR2, the “hNMUR2 selective agonist activity” value is “exhibited the NMUR2 selective agonist activity”. The “brain delivery (ratio of concentration in brain to concentration in plasma; transfer to olfactory bulb)” value in [6] is “more favorable transfer to an olfactory bulb”. For the same compound, the “prolactin secretion (PLT concentration in plasma)” value in the data set on ddy male mouse [7] was “suppresses the prolactin secretion”. Also, the recovery at 2 hours, 50 μg/mL in data set [2] (setting [9]) is not below 80%. For the same compound, the recovery at 6 hours, 50 μg/mL in data set [2] (6 hours, read-out: recovery rate in rat plasma after 6 hours) was not below 60%.
